From patent publication US10851073B2, “Protein tyrosine phosphatase inhibitors and methods of use thereof” (Calico Life Sciences LLC, priority 2019, dated 2020)

Assays:
[1] = target: T1, His tagged PTPN2 (TC45) protein (Homo sapiens, UniProt P17706); experiment: Mobility shift assay used to determine potency of PTPN2 inhibitors; assay type: biochemical; settings: enzyme 0.5 nM, substrate 2 μM; read-out: PTPN2 MSA IC50
T1 construct: made in house
T1 sequence (P17706 with tags, fused parts or gaps isoform P17706-2): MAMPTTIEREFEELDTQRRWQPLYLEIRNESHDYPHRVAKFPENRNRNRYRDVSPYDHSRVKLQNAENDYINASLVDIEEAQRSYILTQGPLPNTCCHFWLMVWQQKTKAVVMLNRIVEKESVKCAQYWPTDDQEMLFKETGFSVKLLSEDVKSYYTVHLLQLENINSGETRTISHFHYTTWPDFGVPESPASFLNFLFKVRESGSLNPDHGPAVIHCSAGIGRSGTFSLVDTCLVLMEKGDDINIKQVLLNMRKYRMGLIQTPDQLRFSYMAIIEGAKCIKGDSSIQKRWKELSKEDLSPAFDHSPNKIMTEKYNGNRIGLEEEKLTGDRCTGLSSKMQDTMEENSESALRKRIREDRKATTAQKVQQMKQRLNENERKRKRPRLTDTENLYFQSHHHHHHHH
Summary of the method: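 Microfluidic mobility-shift read-out (488/530 nm) of dephosphorylation of an OG488-tagged phosphotyrosine insulin receptor peptide, 2 μM, over 10 min at room temperature, after 10 min compound preincubation with 0.5 nM enzyme. Buffer: 50 mM HEPES pH 7.5, EGTA, EDTA, Tween 20, DTT. IC50 derived from % inhibition over 12-point 1:3 series.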

[2] = target: T2, His tagged full-length PTPN1 protein (Homo sapiens, UniProt P18031); experiment: Mobility shift assay (MSA) used to determine potency of PTPN1 inhibitors; assay type: biochemical; settings: enzyme 0.5 nM, substrate 2 μM
T2 construct: made in house
T2 sequence (P18031 with tags, fused parts or gaps): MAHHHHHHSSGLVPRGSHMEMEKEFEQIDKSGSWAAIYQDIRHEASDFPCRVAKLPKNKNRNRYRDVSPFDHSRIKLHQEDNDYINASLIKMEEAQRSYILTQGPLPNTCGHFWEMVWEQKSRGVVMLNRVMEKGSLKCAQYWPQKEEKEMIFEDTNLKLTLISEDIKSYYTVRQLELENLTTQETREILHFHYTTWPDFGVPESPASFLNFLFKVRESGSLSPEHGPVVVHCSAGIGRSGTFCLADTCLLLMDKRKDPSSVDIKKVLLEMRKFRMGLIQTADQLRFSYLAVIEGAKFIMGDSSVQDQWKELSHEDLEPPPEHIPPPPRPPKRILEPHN
Procedure: Example 228: Mobility Shift Assay (MSA) Used to Determine Potency of PTPN1 Inhibitors
Compound activity was determined using in house His tagged full-length PTPN1 protein (SEQ ID NO: 3) in an in vitro enzymatic reaction. The enzymatic assay used to determine activity is a mobility shift assay using a LabChip EZ Reader by Caliper Life Sciences. The enzymatic reaction was carried out in assay buffer (50 mM HEPES pH 7.5, 1 mM EGTA, 10 mM EDTA, 0.01% Tween® 20, and 2 mM DTT). The compounds were dispensed on a white 384 well ProxiPlate™ (PerkinElmer Cat^# 6008289) plate using a Labcyte Echo® liquid handler at varying concentrations (12 point, 1:3 dilution). The enzyme (at 0.5 nM) was incubated with compound for 10 minutes at room temperature. Then the substrate (phosphorylated insulin receptor probe sequence: ((OG488)-(NH—CH2—CH2—O—CH2—CH2—O—CH2—CO)-T-R-D-I-(PY)-E-T-D-Y-Y-R-K-K-NH2) (SEQ ID NO: 2) was added at 2 μM to the plates and incubated for another 10 minutes at room temperature. Finally, a quench solution (water and 4-bromo-3-(2-oxo-2-propoxyethoxy)-5-(3-{[1-(phenylmethanesulfonyl)piperidin-4-yl]amino}phenyl)thiophene-2-carboxylic acid) was added to the plates, which were then run on the EZ Reader (excitation 488 nm, emission 530 nm) to measure % conversion (the amount of phosphorylated substrate which was de-phosphorylated by PTPN1). […] The % inhibition was then used to calculate the IC50 values.

[3] = system: B16F10 mouse melanoma cells; experiment: B16F10 IFNγ-induced cellular growth inhibition assay; assay type: cell-based; settings: B16-F10, with 0.5 ng/mL IFNγ, read-out: B16F10 GI IC50
Procedure: Example 229: B16F10 IFNγ-Induced Cellular Growth Inhibition Assay B16F10 mouse melanoma cells (ATCC Cat^# CRL-6475, Manassas, Va.) were seeded at a density of 500 cells per well in a 384-well clear bottom plate (Corning Cat^#3765, Corning, N.Y.) in 25 μL total volume of DMEM+10% FBS (Sigma Cat^# D6429 and Sigma Cat^# F4135, St. Louis, Mo.). Cells were allowed to adhere overnight at 37° C.+5% CO2. On the following day, 12.5 μL of mouse IFNγ (RD systems Cat^#485-MI/CF, Minneapolis, Minn.) was added to half of the plate (columns 13-24) at a concentration of 2 ng/mL for a final assay concentration of 0.5 ng/mL of IFNγ. Media only (12.5 μL of DMEM+10% FBS) was added to the remainder of the plate (columns 1-12). Next, compounds resuspended in DMSO (Sigma Cat^# D2650) at 100 mM were diluted in semi-log dilutions in DMSO ranging from 100 mM to 0.001 mM and DMSO only controls were included. The compound/DMSO dilutions were further diluted 1:250 in DMEM+10% FBS, and 12.5 μL of these dilutions were added in triplicates to cells of both treatment arms (with and without IFNγ). Final compound concentrations ranged from 100 μM to 0.001 μM with a final DMSO concentration of 0.1%. Compounds were only dosed in the inner 240 wells, avoiding the outer 2-well perimeter of the plate to minim/ze edge effects. Finally, the plate was loaded into an IncuCyte® S3 Live Cell Analysis System (Essen Bioscience-Sartorius, Ann Arbor, Mich.) maintained in a 37° C.+5% CO2 incubator, allowed to equilibrate for 2 hours, and imaged every 6 hours for 5 days. Confluence over time for compound dilutions in the presence and absence of IFNγ was measured. Growth inhibition values were obtained when the “DMSO/no IFNγ” control reached confluence >95%. At these time points, for each compound the percent growth inhibition at every compound dose level was calculated relative to the “DMSO/with IFNγ” control and used to determine the IC50.

| Compound | IC50 [2] | IC50 [3] | IC50 [1] |
| --- | --- | --- | --- |
| CO[C@@H]1CCc2cc(O)c(N3CC(=O)NS3(=O)=O)c(F)c2C1 (single isomer, unassigned) [Compound 104] | 0.01 to 0.1 µM | 10 to 100 µM | 0.01 to 0.1 µM |
| CO[C@H]1CCc2cc(O)c(N3CC(=O)NS3(=O)=O)c(F)c2C1 (single isomer, unassigned) [Compound 109] | 0.01 to 0.1 µM | 10 to 100 µM | 0.01 to 0.1 µM |
| CC(C)CCN[C@H]1CCc2cc(O)c(N3CC(=O)NS3(=O)=O)c(F)c2C1 (single isomer, unassigned) [Compound 117] | 0.01 to 0.1 µM | 1 to 10 µM | 0.01 to 0.1 µM |
| O=C1CN(c2c(O)cc3c(c2F)C[C@@H](NCCC2CC2)CC3)S(=O)(=O)N1 (single isomer, unassigned) [Compound 134] | 0.01 to 0.1 µM | 1 to 10 µM | 0.01 to 0.1 µM |
| CC(C)CCNC1CCc2cc(O)c(N3CC(=O)NS3(=O)=O)c(F)c2C1 (centres unmarked) [Compound 102, 5-{1-fluoro-3-hydroxy-7-[(3-methylbutyl)amino]-5,6,7,8-tetrahydronaphthalen-2-yl}-1λ^6,2,5-thiadiazolidine-1,1,3-trione] | 0.001 to 0.01 µM | < 1 µM | < 0.001 µM |
| COCCOC1CCc2cc(O)c(N3CC(=O)NS3(=O)=O)c(F)c2C1 (centres unmarked) [Compound 106, 5-[1-fluoro-3-hydroxy-7-(2-methoxyethoxy)-5,6,7,8-tetrahydronaphthalen-2-yl]-1λ^6,2,5-thiadiazolidine-1,1,3-trione] | 0.01 to 0.1 µM | 10 to 100 µM | 0.01 to 0.1 µM |
| O=C1CN(c2c(O)cc3c(c2F)CC(OCC2CC2)CC3)S(=O)(=O)N1 (centres unmarked) [Compound 107, 5-[7-(cyclopropylmethoxy)-1-fluoro-3-hydroxy-5,6,7,8-tetrahydronaphthalen-2-yl]-1λ^6,2,5-thiadiazolidine-1,1,3-trione] | 0.01 to 0.1 µM | 10 to 100 µM | 0.01 to 0.1 µM |
| CC(C)CCOC1CCc2c(cc(O)c(N3CC(=O)NS3(=O)=O)c2F)C1 (centres unmarked) [Compound 314, 5-[1-fluoro-3-hydroxy-6-(3-methylbutoxy)-5,6,7,8-tetrahydronaphthalen-2-yl]-1λ^6,2,5-thiadiazolidine-1,1,3-trione] | > 0.1 µM |  | 0.01 to 0.1 µM |

The next lines start with results.

| IC50 [2] | IC50 [3] | Compound | IC50 [1] |
| --- | --- | --- | --- |
| 0.01 to 0.1 µM | > 100 µM | O=C1CN(c2c(O)cc3c(c2F)C[C@@H]([C@@H]2CCNC2)CC3)S(=O)(=O)N1 (single isomer, unassigned) [Compound 136, 5-{(7RS)-1-fluoro-3-hydroxy-7-[(3RS)-pyrrolidin-3-yl]-5,6,7,8-tetrahydronaphthalen-2-yl}-1λ^6,2,5-thiadiazolidine-1,1,3-trione] | 0.01 to 0.1 µM |
| 0.001 to 0.01 µM | 10 to 100 µM | O=C1CN(c2c(O)cc3c(c2F)C[C@@H]([C@@H]2CCN(S(=O)(=O)C4CC4)C2)CC3)S(=O)(=O)N1 (single isomer, unassigned) [Compound 137, 5-{(7RS)-7-[(3RS)-1-(cyclopropanesulfonyl)pyrrolidin-3-yl]-1-fluoro-3-hydroxy-5,6,7,8-tetrahydronaphthalen-2-yl}-1λ^6,2,5-thiadiazolidine-1,1,3-trione] | < 0.001 µM |
| 0.01 to 0.1 µM | 10 to 100 µM | O=C1CN(c2c(O)cc3c(c2F)C[C@@H]([C@H]2CCN(S(=O)(=O)C4CC4)C2)CC3)S(=O)(=O)N1 (single isomer, unassigned) [Compound 139, 5-{(7RS)-7-[(3SR)-1-(cyclopropanesulfonyl)pyrrolidin-3-yl]-1-fluoro-3-hydroxy-5,6,7,8-tetrahydronaphthalen-2-yl}-1λ^6,2,5-thiadiazolidine-1,1,3-trione] | 0.001 to 0.01 µM |
| 0.01 to 0.1 µM | 1 to 10 µM | CC(C)CCNC[C@H]1Cc2cc(O)c(N3CC(=O)NS3(=O)=O)c(F)c2C1 (single isomer, unassigned) [Compound 292] | 0.01 to 0.1 µM |
| 0.001 to 0.01 µM | < 1 µM | CC(C)(CO)CCN[C@@H]1CCc2cc(O)c(N3CC(=O)NS3(=O)=O)c(F)c2C1 (single isomer, unassigned) [Compound 308] | 0.001 to 0.01 µM |
| 0.01 to 0.1 µM |  | CC(C)CCNC1CCc2c(cc(O)c(N3CC(=O)NS3(=O)=O)c2F)C1 (centres unmarked) [Compound 313, 5-{1-fluoro-3-hydroxy-6-[(3-methylbutyl)amino]-5,6,7,8-tetrahydronaphthalen-2-yl}-1λ^6,2,5-thiadiazolidine-1,1,3-trione] | 0.001 to 0.01 µM |
| 0.01 to 0.1 µM |  | CC(C)(O)CCNC1CCc2c(cc(O)c(N3CC(=O)NS3(=O)=O)c2F)C1 (centres unmarked) [Compound 315, 5-{1-fluoro-3-hydroxy-6-[(3-hydroxy-3-methylbutyl)amino]-5,6,7,8-tetrahydronaphthalen-2-yl}-1λ^6,2,5-thiadiazolidine-1,1,3-trione] | 0.001 to 0.01 µM |
| > 0.1 µM |  | CC(C)(C)OC(=O)NCCOC1CCc2c(cc(O)c(N3CC(=O)NS3(=O)=O)c2F)C1 (centres unmarked) [Compound 316, tert-butyl (2-{[5-fluoro-7-hydroxy-6-(1,1,4-trioxo-1λ^6,2,5-thiadiazolidin-2-yl)-1,2,3,4-tetrahydronaphthalen-2-yl]oxy}ethyl)carbamate] | 0.01 to 0.1 µM |
| > 0.1 µM |  | COC1CCc2c(cc(O)c(N3CC(=O)NS3(=O)=O)c2F)C1 (centres unmarked) [Compound 317, 5-(1-fluoro-3-hydroxy-6-methoxy-5,6,7,8-tetrahydronaphthalen-2-yl)-1λ^6,2,5-thiadiazolidine-1,1,3-trione] | 0.01 to 0.1 µM |
| 0.01 to 0.1 µM |  | O=C1CN(c2c(O)cc3c(c2F)CCC(NCC2CC2)C3)S(=O)(=O)N1 (centres unmarked) [Compound 318, 5-{6-[(cyclopropylmethyl)amino]-1-fluoro-3-hydroxy-5,6,7,8-tetrahydronaphthalen-2-yl}-1λ^6,2,5-thiadiazolidine-1,1,3-trione] | 0.001 to 0.01 µM |
| > 0.1 µM |  | NCCOC1CCc2c(cc(O)c(N3CC(=O)NS3(=O)=O)c2F)C1 (centres unmarked) [Compound 319, 5-[6-(2-aminoethoxy)-1-fluoro-3-hydroxy-5,6,7,8-tetrahydronaphthalen-2-yl]-1λ^6,2,5-thiadiazolidine-1,1,3-trione] | 0.01 to 0.1 µM |
